Data from patent EP4610269A1, “UROKINASE PLASMINOGEN ACTIVATOR SURFACE RECEPTOR (UPAR) LIGANDS FOR DIAGNOSTIC OR THERAPEUTIC USE” (3B Pharmaceuticals GmbH, priority 2024, dated 2025).
Where a SMILES comes first, the peptide text is derived from it. Bridges are numbered along the chain shown (N, C = ends). [ ]: non-standard residue; d: D form. The star is where a group is joined. X4 = C[N+](C)(CCCC[C@H](NC(=O)CN1CCN(CC(=O)O)CCN(CC(=O)O)CCN(CC(=O)O)CC1)C(=O)*)CCCS(=O)(=O)[O-]; Acetyl(4-DOTA-piperazinyl) = O=C(O)CN1CCN(CC(=O)O)CCN(CC(=O)N2CCN(CC(=O)*)CC2)CCN(CC(=O)O)CC1; DOTA = O=C(O)CN1CCN(CC(=O)O)CCN(CC(=O)*)CCN(CC(=O)O)CC1; Tyr(3-Cl) = N[C@@H](Cc1ccc(O)c(Cl)c1)C(=O)O; Oic = O=C(O)[C@@H]1C[C@@H]2CCCC[C@@H]2N1; Pro(cis-4-F) = O=C(O)[C@@H]1C[C@H](F)CN1; Dopa = N[C@@H](Cc1ccc(O)c(O)c1)C(=O)O; Hyp = O=C(O)[C@@H]1C[C@@H](O)CN1; Pentanoyl(4-Me) = CC(C)CCC(=O)*; Cit = NC(=O)NCCC[C@H](N)C(=O)O; Gly(cPr) = N[C@H](C(=O)O)C1CC1; Butoxycarbonyl = CCCCOC(=O)*; Phg = N[C@H](C(=O)O)c1ccccc1; Octanoyl = CCCCCCCC(=O)*; Orn = NCCC[C@H](N)C(=O)O; Api = NC1(C(=O)O)CCNCC1; Nva = CCC[C@H](N)C(=O)O; Pentanoyl = CCCCC(=O)*

How the values were obtained:
[1] = molecular target: T1, uPAR-expressing HEC-265 human endometrial adenocarcinoma cells (Homo sapiens, UniProt Q03405); assay: Competitive FACS binding assay; conditions: pIC50 category of FACS binding
T1 construct: Cell surface uPAR-expressing HEC-265 human endometrial adenocarcinoma cells; host or cells: HEC-265
Outline: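 Competitive displacement of a 10 nM biotinylated peptide from HEC-265 cells (1 h, 4 °C, PBS/1% BSA), detected via APC-streptavidin by flow cytometry. pIC50 from four-parameter logistic fit of median fluorescence versus concentration.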

human uPAR (uPAR-Fc) = molecular target: T2, human uPAR (uPAR-Fc) (Homo sapiens, UniProt Q03405); assay: Surface plasmon resonance (SPR) assay, single cycle kinetics; format: binding; conditions: pKD category for uPAR SPR activity assay; uPAR-Fc on Protein A-Chip, 25°C; read-out: pKD CAT (converted)
T2 construct: comprising amino acids Leu23-Arg303 according to UniProt entry Q03405.1; purchased R&D Systems 10378-UK-100
Outline: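 uPAR-Fc (Leu23-Arg303 extracellular domains, human IgG1 Fc) captured on Protein A chip to ~2000 RU; single-cycle kinetics at 25°C in HEPES running buffer pH 7.4 with 0.1% DMSO. KD from double-referenced sensorgrams fitted to 1:1 Langmuir model, reported as pKD.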

T1 sequence (Q03405 23-335): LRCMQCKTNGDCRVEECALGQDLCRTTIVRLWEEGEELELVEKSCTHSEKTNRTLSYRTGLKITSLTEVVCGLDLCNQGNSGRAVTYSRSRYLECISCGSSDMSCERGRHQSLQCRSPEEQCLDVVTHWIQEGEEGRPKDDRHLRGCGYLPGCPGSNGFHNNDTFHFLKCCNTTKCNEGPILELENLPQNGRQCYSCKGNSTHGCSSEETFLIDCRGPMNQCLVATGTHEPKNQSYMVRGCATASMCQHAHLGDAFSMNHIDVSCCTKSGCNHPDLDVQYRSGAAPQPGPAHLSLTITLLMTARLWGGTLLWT
T2 sequence (Q03405 23-303): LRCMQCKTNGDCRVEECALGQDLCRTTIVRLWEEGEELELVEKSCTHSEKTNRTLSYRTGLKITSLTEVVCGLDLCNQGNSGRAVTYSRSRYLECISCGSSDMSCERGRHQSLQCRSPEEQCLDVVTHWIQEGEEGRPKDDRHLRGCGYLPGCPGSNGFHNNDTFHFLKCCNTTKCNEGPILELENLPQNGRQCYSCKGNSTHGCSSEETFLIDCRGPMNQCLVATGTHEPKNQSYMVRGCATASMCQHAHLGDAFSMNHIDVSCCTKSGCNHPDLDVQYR

Compound | IC50 [1] [nM] | Kd (human uPAR (uPAR-Fc)) [nM]
CCCCOC(=O)N[C@H]1CSSC[C@@H](C(N)=O)NC(=O)[C@H](CCC)NC(=O)[C@H]([C@@H](C)CC)NC(=O)[C@@H]2C[C@@H](O)CN2C(=O)[C@@H]2C[C@H](F)CN2C(=O)[C@H](Cc2ccccc2)NC(=O)[C@H](Cc2ccc(O)cc2)NC(=O)[C@H](CCCCNC(=O)CN2CCN(C(=O)CN3CCN(CC(=O)O)CCN(CC(=O)O)CCN(CC(=O)O)CC3)CC2)NC(=O)[C@H]([C@@H](C)O)NC1=O [UPAR-181, Butoc-[Cys-Thr-Lys(DOTA-PPAc)-Tyr-Phe-4Cfp-Hyp-Ile-Nva-Cys]-NH2] (Butoxycarbonyl-CTK(Acetyl(4-DOTA-piperazinyl))YF[Pro(cis-4-F)][Hyp]I[Nva]C-NH2; disulfide 1-10) | ≤ 10 | < 1.58
CC[C@H](C)[C@@H]1NC(=O)[C@@H](C)NC(=O)[C@@H]2CCCN2C(=O)[C@H](Cc2ccccc2)NC(=O)[C@H](Cc2ccc(O)cc2)NC(=O)[C@H](CCC(N)=O)NC(=O)[C@H](CCCNC(N)=O)NC(=O)[C@@H](NC(=O)CCC(C)C)CSSC[C@@H](C(N)=O)NC(=O)[C@H](C(C)C)NC1=O [UPAR-184, iHex-[Cys-Cit-Gln-Tyr-Phe-Pro-ala-Ile-Val-Cys]-NH2] ({Pentanoyl(4-Me)}-C[Cit]QYFP[dA]IVC-NH2; disulfide 1-10) | ≤ 10 | 1.58 to 10
CCCCC(=O)N[C@H]1CSSC[C@@H](C(N)=O)NC(=O)[C@H](CCC)NC(=O)[C@H]([C@@H](C)CC)NC(=O)[C@@H]2C[C@@H](O)CN2C(=O)[C@@H]2CCCN2C(=O)[C@H](Cc2ccccc2)NC(=O)[C@H](Cc2ccc(O)cc2)NC(=O)[C@H](CCC(N)=O)NC(=O)C2(CCNCC2)NC1=O [UPAR-186, Pent-[Cys-Apc-Gln-Tyr-Phe-Pro-Hyp-Ile-Nva-Cys]-NH2] (Pentanoyl-C[Api]QYFP[Hyp]I[Nva]C-NH2; disulfide 1-10) | ≤ 10 | < 1.58
CC(C)CCC(=O)N[C@H]1CSSC[C@@H](C(N)=O)NC(=O)[C@H](CC(C)C)NC(=O)[C@H](C2CC2)NC(=O)[C@@H](C)NC(=O)[C@@H]2CCCN2C(=O)[C@H](Cc2ccccc2)NC(=O)[C@H](Cc2ccc(O)cc2)NC(=O)[C@H](CCC(N)=O)NC(=O)[C@H](CCCNC(N)=O)NC1=O [UPAR-187, iHex-[Cys-Cit-Gln-Tyr-Phe-Pro-ala-Cpa-Leu-Cys]-NH2] ({Pentanoyl(4-Me)}-C[Cit]QYFP[dA][Gly(cPr)]LC-NH2; disulfide 1-10) | ≥ 126 | > 100
CC[C@H](C)[C@@H]1NC(=O)[C@@H](C)NC(=O)[C@@H]2CCCN2C(=O)[C@H](Cc2ccccc2)NC(=O)[C@H](Cc2ccc(O)c(Cl)c2)NC(=O)[C@H](CCC(N)=O)NC(=O)[C@H](CCCNC(N)=O)NC(=O)[C@@H](NC(=O)CCC(C)C)CSSC[C@@H](C(N)=O)NC(=O)[C@H](CC(C)C)NC1=O [UPAR-188, iHex-[Cys-Cit-Gln-Mcy-Phe-Pro-ala-Ile-Leu-Cys]-NH2] ({Pentanoyl(4-Me)}-C[Cit]Q[Tyr(3-Cl)]FP[dA]ILC-NH2; disulfide 1-10) | ≤ 10 | < 1.58
CCCCC(=O)N[C@H]1CSSC[C@@H](C(N)=O)NC(=O)[C@H](CCC)NC(=O)[C@H]([C@@H](C)CC)NC(=O)[C@@H]2C[C@@H]3CCCC[C@@H]3N2C(=O)[C@@H]2CCCN2C(=O)[C@H](Cc2ccccc2)NC(=O)[C@H](Cc2ccc(O)cc2)NC(=O)[C@H](CCC(N)=O)NC(=O)[C@H](CCCNC(=N)N)NC1=O [UPAR-190, Pent-[Cys-Arg-Gln-Tyr-Phe-Pro-Oic-Ile-Nva-Cys]-NH2] (Pentanoyl-CRQYFP[Oic]I[Nva]C-NH2; disulfide 1-10) | 12.6 to 31.6 | < 1.58
CCCCOC(=O)N[C@H]1CSSC[C@@H](C(N)=O)NC(=O)[C@H](CCC)NC(=O)[C@H]([C@@H](C)CC)NC(=O)[C@@H]2C[C@@H](O)CN2C(=O)[C@@H]2C[C@H](F)CN2C(=O)[C@H](Cc2ccccc2)NC(=O)[C@H](Cc2ccc(O)cc2)NC(=O)[C@H](CCCNC(=O)CN2CCN(CC(=O)O)CCN(CC(=O)O)CCN(CC(=O)O)CC2)NC(=O)[C@H]([C@@H](C)O)NC1=O [UPAR-192, Butoc-[Cys-Thr-Orn(DOTA)-Tyr-Phe-4Cfp-Hyp-Ile-Nva-Cys]-NH2] (Butoxycarbonyl-CT[Orn](DOTA)YF[Pro(cis-4-F)][Hyp]I[Nva]C-NH2; disulfide 1-10) | ≤ 10 | < 1.58
CCCCCCCC(=O)N[C@H]1CSSC[C@@H](C(N)=O)NC(=O)[C@H](CCC)NC(=O)[C@H]([C@@H](C)CC)NC(=O)[C@@H]2C[C@@H](O)CN2C(=O)[C@@H]2CCCN2C(=O)[C@H](Cc2ccccc2)NC(=O)[C@H](Cc2ccc(O)cc2)NC(=O)[C@H](CCC(N)=O)NC(=O)[C@H](CCCNC(=N)N)NC1=O [UPAR-193, Oct-[Cys-Arg-Gln-Tyr-Phe-Pro-Hyp-Ile-Nva-Cys]-NH2] (Octanoyl-CRQYFP[Hyp]I[Nva]C-NH2; disulfide 1-10) | ≤ 10 | < 1.58
CCCCOC(=O)N[C@H]1CSSC[C@@H](C(N)=O)NC(=O)[C@H](CCC)NC(=O)[C@H]([C@@H](C)CC)NC(=O)[C@@H]2C[C@@H](O)CN2C(=O)[C@@H]2C[C@H](F)CN2C(=O)[C@H](Cc2ccccc2)NC(=O)[C@H](Cc2ccc(O)c(O)c2)NC(=O)[C@H](CCCCNC(=O)[C@H](CCCC[N+](C)(C)CCCS(=O)(=O)[O-])NC(=O)CN2CCN(CC(=O)O)CCN(CC(=O)O)CCN(CC(=O)O)CC2)NC(=O)[C@H]([C@@H](C)O)NC1=O [UPAR-194, Butoc-[Cys-Thr-Lys(DOTA-Kzw)-Dopa-Phe-4Cfp-Hyp-Ile-Nva-Cys]-NH2] (Butoxycarbonyl-CTK(X4)[Dopa]F[Pro(cis-4-F)][Hyp]I[Nva]C-NH2; disulfide 1-10) | ≤ 10 | < 1.58
CCCCC(=O)N[C@H]1CSSC[C@@H](C(N)=O)NC(=O)[C@H](CCC)NC(=O)[C@H]([C@@H](C)CC)NC(=O)[C@@H]2C[C@@H](O)CN2C(=O)[C@@H]2CCCN2C(=O)[C@H](Cc2ccccc2)NC(=O)[C@H](CC(C)C)NC(=O)[C@H](CCC(N)=O)NC(=O)[C@H](CCCNC(=N)N)NC1=O [UPAR-195, Pent-[Cys-Arg-Gln-Leu-Phe-Pro-Hyp-Ile-Nva-Cys]-NH2] (Pentanoyl-CRQLFP[Hyp]I[Nva]C-NH2; disulfide 1-10) | 12.6 to 31.6 | 1.58 to 10
CCCCC(=O)N[C@H]1CSSC[C@@H](C(N)=O)NC(=O)[C@H](CCC)NC(=O)[C@H]([C@@H](C)CC)NC(=O)[C@@H]2C[C@@H](O)CN2C(=O)[C@@H]2CCCN2C(=O)[C@H](Cc2ccccc2)NC(=O)[C@H](c2ccccc2)NC(=O)[C@H](CCC(N)=O)NC(=O)[C@H](CCCNC(=N)N)NC1=O [UPAR-196, Pent-[Cys-Arg-Gln-Phg-Phe-Pro-Hyp-Ile-Nva-Cys]-NH2] (Pentanoyl-CRQ[Phg]FP[Hyp]I[Nva]C-NH2; disulfide 1-10) | ≥ 126 | > 100
CCCCC(=O)N[C@H]1CSSC[C@@H](C(N)=O)NC(=O)[C@H](CCC)NC(=O)[C@H]([C@@H](C)CC)NC(=O)[C@@H]2C[C@@H](O)CN2C(=O)[C@@H]2CCCN2C(=O)[C@H](CC(C)C)NC(=O)[C@H](Cc2ccc(O)cc2)NC(=O)[C@H](CCC(N)=O)NC(=O)[C@H](CCCNC(=N)N)NC1=O [UPAR-197, Pent-[Cys-Arg-Gln-Tyr-Leu-Pro-Hyp-Ile-Nva-Cys]-NH2] (Pentanoyl-CRQYLP[Hyp]I[Nva]C-NH2; disulfide 1-10) | 12.6 to 31.6 | 1.58 to 10
